From ChEMBL document CHEMBL1201862, “PubChem BioAssay data set” (2004)
Activity calls are given as the source filed them.

Tests used:
[1] = target: Sphingosine 1-phosphate receptor 2 (Homo sapiens, UniProt O95136); test: Dose Response Cell Based Assay for Agonists of the S1P2 Receptor of Purchased Analogues. [Related pubchem assays: 729, 843, 854, 736 ]; format: functional
NADPH oxidase 1 = NADPH oxidase 1 (Homo sapiens, UniProt Q9Y5S8); format: functional, cell-based;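 further: Cell-based assay with luminescence read-out, IC50 derived from inhibitor dose-response curves; intracellular ROS from endogenous NOX1 in intact HT29 colon cancer cells; potency of inhibitors that lower the ROS luminescence signal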
Bcl-2-related protein A1 [2] = target: T1, Bcl-2-related protein A1 (Mus musculus, UniProt Q07440); test: Bfl-1 inhibitors, primary screen, biochemical, fluorescence polarization, FITC-Bid, mouse (AID 432)
T1 sequence (Q07440 whole entry): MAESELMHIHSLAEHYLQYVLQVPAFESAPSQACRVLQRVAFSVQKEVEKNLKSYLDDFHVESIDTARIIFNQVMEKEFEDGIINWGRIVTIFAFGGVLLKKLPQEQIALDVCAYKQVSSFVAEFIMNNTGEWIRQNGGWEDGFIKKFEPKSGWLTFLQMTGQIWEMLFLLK

Bcl-2-related protein A1 [3] = target: T1, Bcl-2-related protein A1; test: Bfl-1 inhibitors blocking BH3 peptide binding, confirmation, biochemical, TR-FRET, mouse Bfl-1 (AID 621);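 further: TR-FRET binding of GST-Bfl-1 to FITC-labelled Bid peptide via terbium antibody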
[4] = target: Serine/threonine-protein phosphatase PP1-alpha catalytic subunit (Homo sapiens, UniProt P62136); test: PP1 phosphatase inhibitors, dose response, biochemical, fluorescence (AID 2394)
Serine/threonine-protein phosphatase PP1-alpha catalytic subunit, sequence (P62136 whole entry): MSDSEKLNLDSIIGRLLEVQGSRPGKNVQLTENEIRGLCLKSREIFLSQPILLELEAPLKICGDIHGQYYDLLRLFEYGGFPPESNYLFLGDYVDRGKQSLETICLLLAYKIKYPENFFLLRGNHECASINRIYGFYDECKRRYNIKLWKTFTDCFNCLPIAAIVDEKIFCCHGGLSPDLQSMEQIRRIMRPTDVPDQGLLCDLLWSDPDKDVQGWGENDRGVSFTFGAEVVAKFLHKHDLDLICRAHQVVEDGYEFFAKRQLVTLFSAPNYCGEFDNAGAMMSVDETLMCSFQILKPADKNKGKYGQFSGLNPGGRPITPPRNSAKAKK

SUMO-activating enzyme [5] = target: T2, SUMO-activating enzyme (Homo sapiens, UniProt Q9UBT2); test: SUMOylation inhibitor hit validation, confirmation, SUMOylation inhibitor project, biochemical, AlphaScreen (AID 2018); format: functional
T2 sequence (Q9UBE0 whole entry): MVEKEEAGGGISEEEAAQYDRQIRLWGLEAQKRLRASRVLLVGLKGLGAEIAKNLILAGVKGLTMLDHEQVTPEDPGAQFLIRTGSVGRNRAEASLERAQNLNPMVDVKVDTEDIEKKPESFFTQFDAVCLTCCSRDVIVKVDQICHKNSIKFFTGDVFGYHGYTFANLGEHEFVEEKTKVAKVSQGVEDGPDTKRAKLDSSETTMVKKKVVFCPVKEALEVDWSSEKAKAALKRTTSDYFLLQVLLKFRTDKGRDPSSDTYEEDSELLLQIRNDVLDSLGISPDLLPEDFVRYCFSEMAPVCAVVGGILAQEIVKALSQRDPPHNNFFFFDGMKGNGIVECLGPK
T2 sequence (Q9UBT2 whole entry): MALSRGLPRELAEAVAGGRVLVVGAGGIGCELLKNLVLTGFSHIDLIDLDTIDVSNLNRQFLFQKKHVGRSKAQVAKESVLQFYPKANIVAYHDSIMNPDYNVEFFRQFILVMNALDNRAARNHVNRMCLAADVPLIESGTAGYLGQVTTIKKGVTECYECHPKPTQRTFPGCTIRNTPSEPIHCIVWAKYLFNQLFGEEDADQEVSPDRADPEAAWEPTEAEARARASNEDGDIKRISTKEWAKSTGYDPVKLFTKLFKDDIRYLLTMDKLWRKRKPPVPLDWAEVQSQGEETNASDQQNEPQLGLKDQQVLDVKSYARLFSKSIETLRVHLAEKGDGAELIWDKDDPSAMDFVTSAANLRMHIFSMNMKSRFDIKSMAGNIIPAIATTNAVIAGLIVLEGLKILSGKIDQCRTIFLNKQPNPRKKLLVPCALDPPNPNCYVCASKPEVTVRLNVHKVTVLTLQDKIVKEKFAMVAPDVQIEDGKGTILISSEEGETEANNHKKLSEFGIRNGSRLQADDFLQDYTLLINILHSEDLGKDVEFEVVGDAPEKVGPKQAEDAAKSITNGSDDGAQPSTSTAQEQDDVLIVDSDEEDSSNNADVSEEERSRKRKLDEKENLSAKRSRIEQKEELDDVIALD

SUMO-activating enzyme [6] = target: T2, SUMO-activating enzyme; test: inhibitors of in vitro SUMOylation cascade, primary screen, biochemical, HTRF, uHTS (AID 2006); format: protein-complex assay
[7] = target: T3, Serine/threonine-protein phosphatase (Homo sapiens, UniProt Q9BPW0); test: PP5 phosphatase inhibitors, dose response, biochemical, fluorescence (AID 2395)
T3 sequence (Q9BPW0 whole entry): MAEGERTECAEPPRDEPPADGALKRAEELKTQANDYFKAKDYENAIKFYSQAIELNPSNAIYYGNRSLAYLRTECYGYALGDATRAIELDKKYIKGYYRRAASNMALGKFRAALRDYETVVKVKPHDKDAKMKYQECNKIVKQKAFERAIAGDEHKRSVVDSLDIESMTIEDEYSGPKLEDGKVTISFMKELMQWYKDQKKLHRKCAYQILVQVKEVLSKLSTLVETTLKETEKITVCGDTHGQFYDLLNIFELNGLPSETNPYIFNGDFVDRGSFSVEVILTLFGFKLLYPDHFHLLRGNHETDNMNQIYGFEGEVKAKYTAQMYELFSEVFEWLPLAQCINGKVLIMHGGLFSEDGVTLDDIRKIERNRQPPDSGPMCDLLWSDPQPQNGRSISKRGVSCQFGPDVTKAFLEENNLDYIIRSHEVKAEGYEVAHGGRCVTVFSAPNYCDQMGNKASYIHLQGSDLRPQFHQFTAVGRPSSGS

[8] = target: T4, Apoptotic protease-activating factor 1 (Homo sapiens, UniProt O14727); format: functional
T4 sequence (O14727 whole entry): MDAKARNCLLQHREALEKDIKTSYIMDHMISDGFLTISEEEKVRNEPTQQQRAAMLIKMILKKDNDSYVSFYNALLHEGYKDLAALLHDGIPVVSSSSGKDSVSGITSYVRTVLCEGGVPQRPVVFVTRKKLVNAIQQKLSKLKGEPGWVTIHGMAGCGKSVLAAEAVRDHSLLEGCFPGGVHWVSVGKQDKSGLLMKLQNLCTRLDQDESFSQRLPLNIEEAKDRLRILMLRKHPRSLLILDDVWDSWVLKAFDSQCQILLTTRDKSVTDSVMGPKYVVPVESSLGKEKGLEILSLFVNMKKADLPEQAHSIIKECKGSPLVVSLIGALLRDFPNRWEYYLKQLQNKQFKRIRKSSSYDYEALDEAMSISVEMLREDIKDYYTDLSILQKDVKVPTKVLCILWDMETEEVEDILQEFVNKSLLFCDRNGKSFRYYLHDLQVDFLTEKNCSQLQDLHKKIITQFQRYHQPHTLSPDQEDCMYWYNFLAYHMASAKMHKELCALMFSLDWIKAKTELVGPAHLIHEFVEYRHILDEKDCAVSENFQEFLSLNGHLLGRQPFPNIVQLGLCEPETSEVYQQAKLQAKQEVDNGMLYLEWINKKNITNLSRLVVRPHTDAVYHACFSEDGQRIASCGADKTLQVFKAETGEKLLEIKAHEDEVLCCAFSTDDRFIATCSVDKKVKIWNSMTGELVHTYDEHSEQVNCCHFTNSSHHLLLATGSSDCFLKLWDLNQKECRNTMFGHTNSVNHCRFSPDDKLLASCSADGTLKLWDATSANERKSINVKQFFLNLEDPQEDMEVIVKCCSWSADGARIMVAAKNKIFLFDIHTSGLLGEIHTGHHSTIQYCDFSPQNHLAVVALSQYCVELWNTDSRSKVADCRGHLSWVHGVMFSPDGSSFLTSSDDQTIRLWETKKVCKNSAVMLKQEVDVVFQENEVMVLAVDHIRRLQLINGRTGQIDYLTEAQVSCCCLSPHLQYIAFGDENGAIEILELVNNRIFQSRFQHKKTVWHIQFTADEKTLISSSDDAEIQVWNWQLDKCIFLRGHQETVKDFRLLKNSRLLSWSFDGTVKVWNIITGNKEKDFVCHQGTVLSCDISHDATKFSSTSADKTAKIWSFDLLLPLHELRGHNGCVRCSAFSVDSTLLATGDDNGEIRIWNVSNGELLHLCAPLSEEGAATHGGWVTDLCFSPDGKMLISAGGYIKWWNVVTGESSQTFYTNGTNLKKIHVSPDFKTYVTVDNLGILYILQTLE

[9] = target: Ras and Rab interactor 1/Tyrosine-protein kinase ABL1 (Homo sapiens, UniProt P00519+Q13671); format: functional;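 further: biochemical TR-FRET dose-response test measuring inhibition of binding between Rin1 and Abl proteins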
Ras and Rab interactor 1/Tyrosine-protein kinase ABL1, sequence (P00519 whole entry): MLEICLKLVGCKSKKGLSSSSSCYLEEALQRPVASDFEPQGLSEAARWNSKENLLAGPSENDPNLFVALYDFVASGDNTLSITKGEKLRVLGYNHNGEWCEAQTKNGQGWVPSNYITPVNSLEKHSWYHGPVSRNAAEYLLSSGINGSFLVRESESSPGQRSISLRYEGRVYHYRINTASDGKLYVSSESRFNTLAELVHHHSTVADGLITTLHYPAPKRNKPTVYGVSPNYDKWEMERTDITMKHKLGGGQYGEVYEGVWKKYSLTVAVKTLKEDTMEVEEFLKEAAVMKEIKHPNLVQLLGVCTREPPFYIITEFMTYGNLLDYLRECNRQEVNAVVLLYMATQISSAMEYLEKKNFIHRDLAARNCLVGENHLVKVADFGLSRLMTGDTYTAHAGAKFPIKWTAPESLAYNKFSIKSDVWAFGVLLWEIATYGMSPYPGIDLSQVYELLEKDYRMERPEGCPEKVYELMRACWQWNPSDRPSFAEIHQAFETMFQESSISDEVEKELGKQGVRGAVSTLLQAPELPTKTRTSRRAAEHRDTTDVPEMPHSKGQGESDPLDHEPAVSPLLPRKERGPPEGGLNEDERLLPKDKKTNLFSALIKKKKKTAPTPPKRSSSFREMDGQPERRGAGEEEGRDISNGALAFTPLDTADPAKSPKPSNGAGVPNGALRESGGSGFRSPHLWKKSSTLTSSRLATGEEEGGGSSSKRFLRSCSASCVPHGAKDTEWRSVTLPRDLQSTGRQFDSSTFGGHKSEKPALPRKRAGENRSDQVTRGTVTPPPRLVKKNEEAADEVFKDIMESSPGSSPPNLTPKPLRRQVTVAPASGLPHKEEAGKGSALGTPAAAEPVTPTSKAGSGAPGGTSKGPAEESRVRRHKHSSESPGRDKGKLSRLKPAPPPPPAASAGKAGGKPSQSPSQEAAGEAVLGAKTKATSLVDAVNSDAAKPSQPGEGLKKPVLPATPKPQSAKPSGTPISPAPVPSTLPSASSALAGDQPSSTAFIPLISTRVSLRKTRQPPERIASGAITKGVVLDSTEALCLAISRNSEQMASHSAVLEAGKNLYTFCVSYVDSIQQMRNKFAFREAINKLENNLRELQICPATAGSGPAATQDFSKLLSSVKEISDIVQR
Ras and Rab interactor 1/Tyrosine-protein kinase ABL1, sequence (Q13671 whole entry): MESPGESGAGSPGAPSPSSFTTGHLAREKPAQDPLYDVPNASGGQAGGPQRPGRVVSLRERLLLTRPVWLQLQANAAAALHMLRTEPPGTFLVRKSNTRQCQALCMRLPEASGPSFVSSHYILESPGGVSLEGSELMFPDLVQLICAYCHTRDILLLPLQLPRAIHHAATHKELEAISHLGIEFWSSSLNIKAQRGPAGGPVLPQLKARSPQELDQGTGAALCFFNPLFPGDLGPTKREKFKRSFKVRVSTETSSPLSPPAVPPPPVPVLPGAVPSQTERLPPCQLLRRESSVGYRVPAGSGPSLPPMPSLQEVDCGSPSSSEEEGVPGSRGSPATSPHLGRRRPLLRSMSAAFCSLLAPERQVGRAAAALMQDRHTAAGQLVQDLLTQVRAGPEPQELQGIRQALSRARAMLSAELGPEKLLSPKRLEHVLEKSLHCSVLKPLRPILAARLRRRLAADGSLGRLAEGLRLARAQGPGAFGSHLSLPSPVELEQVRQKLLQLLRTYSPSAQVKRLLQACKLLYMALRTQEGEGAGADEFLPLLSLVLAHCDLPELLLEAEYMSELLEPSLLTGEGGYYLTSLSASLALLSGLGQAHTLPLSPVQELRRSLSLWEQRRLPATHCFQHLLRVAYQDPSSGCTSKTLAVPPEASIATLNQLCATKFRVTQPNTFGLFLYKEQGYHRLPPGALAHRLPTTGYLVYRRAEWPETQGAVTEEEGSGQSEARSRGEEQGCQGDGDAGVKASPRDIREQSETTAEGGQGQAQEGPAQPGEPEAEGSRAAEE

[10] = target: T5, Sentrin-specific protease 8 (Homo sapiens, UniProt Q96LD8); format: functional
T5 sequence (Q96LD8 whole entry): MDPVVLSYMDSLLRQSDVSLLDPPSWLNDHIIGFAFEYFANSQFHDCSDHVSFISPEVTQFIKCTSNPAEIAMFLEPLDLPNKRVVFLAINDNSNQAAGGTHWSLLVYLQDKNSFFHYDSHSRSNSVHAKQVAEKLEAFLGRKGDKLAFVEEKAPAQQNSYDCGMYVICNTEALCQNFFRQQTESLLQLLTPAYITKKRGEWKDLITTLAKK

[11] = target: T5, Sentrin-specific protease 8; format: functional; remark: listed apart in the source
[12] = target: T6, Histone-lysine N-methyltransferase NSD2 (Homo sapiens, UniProt O96028); format: biochemical
T6 sequence (O96028 whole entry): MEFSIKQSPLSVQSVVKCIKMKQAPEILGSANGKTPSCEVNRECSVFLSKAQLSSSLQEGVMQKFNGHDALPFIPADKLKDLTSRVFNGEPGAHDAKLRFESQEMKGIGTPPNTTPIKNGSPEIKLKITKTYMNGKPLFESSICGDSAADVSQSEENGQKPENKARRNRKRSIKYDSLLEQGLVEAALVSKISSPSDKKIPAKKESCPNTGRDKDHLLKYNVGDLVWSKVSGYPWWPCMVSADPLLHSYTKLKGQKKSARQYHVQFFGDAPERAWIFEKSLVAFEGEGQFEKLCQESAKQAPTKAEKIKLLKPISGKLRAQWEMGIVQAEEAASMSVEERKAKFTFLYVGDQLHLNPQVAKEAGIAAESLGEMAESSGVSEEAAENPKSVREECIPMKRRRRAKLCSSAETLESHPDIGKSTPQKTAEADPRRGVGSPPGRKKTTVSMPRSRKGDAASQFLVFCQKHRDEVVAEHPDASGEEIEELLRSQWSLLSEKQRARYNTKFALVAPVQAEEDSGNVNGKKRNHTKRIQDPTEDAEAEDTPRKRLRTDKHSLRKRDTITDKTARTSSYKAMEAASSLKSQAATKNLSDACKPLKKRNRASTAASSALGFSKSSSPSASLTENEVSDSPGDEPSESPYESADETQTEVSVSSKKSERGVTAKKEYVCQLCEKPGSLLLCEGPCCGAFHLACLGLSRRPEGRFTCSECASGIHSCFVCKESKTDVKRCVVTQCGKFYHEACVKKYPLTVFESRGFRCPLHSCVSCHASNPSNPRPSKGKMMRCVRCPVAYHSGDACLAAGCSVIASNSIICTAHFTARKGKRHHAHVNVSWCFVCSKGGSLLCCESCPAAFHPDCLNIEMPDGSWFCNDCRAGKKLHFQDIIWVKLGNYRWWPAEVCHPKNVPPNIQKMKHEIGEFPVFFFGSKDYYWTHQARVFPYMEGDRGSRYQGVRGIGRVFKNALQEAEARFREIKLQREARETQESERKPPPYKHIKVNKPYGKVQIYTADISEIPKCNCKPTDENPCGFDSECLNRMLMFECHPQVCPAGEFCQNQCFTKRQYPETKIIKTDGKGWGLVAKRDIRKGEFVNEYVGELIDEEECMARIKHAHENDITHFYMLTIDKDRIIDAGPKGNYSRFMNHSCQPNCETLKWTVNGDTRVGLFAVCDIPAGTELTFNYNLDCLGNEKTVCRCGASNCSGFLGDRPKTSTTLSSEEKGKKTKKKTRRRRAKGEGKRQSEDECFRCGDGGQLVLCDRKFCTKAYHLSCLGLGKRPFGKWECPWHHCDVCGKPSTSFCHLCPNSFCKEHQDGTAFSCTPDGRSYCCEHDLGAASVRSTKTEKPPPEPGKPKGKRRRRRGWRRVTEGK

[13] = target: Tyrosyl-DNA phosphodiesterase 2 (Homo sapiens, UniProt O95551); test: human TDP2 enzyme inhibitors, dose response, biochemical, epi absorbance, IC50 (AID 743297)
[14] = target: Mothers against decapentaplegic homolog 3 (Homo sapiens, UniProt P84022); test: SMAD3 transcription factor inhibitors, dose response (AID 715); format: functional
[15] = Luminescence Cell-Based Dose Response to Identify Activators of 5'UTR Stem-Loop Driven Prion Protein mRNA Translation in H4-C Neuroglioblastoma Cells. [Related pubchem assays: 1829 (Project Summary), 1814 (Primary HTS)]; format: functional
[16] = Luminescence Cell-Based Dose Confirmation HTS to Identify Activators of 5'UTR Stem-Loop Driven Alpha-Synuclein mRNA Translation in H4 Neuroglioblastoma Cells. [Related pubchem assays: 1829 (Project Summary), 1814 (Primary HTS)]; format: functional
[17] = Luminescence Cell-Based Dose Response HTS to Identify Activators of Luciferase Translation or Activity in H4 […] Cells. [Related pubchem assays: 1829 (Project Summary), 1814 (Primary HTS)]; format: functional
H4 = test: Luminescence Cell-Based Dose Response HTS to Identify Activators of 5'UTR Stem-Loop Driven Prion Protein mRNA Translation in H4 Neuroglioblastoma Cells. [Related pubchem assays: 1829 (Project Summary), 1814 (Primary HTS)]; format: functional; settings: Homo sapiens
[18] = Luminescence Cell-Based Dose Response to Identify Activators of Luciferase Translation or Activity in H4-C Neuroglioblastoma Cells. [Related pubchem assays: 1829 (Project Summary), 1814 (Primary HTS)]; format: functional
[19] = Luminescence Cell-Based Dose Confirmation to Identify Activators of 5'UTR Stem-Loop Driven Alpha-Synuclein mRNA Translation in H4 Neuroglioblastoma Cells. [Related pubchem assays: 1829 (Project Summary), 1814 (Primary HTS)]; format: functional
[20] = target: Epstein-Barr nuclear antigen 1 (Epstein-Barr virus (strain B95-8) (HHV-4) (Human herpesvirus 4), UniProt P03211); test: EBNA-1 inhibitors, dose response, biochemical, fluorescence polarization, 1536-well (AID 2381); parameters: species or system human gammaherpesvirus 4;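 further: fluorescence polarization of a Cy5 DNA probe bound by EBNA-1 protein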
Epstein-Barr nuclear antigen 1, sequence (P03211 whole entry): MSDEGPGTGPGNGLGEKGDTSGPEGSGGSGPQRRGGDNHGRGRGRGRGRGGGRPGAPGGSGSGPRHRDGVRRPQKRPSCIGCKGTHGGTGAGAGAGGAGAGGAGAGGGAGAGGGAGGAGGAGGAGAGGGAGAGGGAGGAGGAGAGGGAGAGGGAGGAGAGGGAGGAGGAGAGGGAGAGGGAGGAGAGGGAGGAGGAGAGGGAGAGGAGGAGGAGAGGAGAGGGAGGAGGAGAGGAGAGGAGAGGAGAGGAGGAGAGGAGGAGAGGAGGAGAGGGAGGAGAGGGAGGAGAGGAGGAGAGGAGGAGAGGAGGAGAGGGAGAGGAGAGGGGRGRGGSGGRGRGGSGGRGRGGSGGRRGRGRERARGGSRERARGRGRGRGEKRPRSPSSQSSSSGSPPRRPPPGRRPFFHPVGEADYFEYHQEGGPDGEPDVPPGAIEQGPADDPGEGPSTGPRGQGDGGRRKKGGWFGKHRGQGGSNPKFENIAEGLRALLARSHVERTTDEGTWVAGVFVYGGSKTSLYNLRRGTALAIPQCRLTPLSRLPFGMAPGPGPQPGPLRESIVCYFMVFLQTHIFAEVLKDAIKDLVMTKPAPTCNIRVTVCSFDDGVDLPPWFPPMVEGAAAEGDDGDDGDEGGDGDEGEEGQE

[21] = target: Lytic switch protein BZLF1 (Epstein-Barr virus (strain B95-8) (HHV-4) (Human herpesvirus 4), UniProt P03206); test: EBV ZTA inhibitors, dose response, counter-screen for EBNA-1 inhibitor project, biochemical, fluorescence polarization, Epstein-Barr virus, 1536-well (AID 2377); parameters: species or system human gammaherpesvirus 4;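 further: fluorescence polarization of Cy5-labelled ZRE DNA probe bound by purified Zta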
Cytochrome P450 2C9 = Cytochrome P450 2C9 (Homo sapiens, UniProt P11712)
Cytochrome P450 2C9, sequence (P11712 whole entry): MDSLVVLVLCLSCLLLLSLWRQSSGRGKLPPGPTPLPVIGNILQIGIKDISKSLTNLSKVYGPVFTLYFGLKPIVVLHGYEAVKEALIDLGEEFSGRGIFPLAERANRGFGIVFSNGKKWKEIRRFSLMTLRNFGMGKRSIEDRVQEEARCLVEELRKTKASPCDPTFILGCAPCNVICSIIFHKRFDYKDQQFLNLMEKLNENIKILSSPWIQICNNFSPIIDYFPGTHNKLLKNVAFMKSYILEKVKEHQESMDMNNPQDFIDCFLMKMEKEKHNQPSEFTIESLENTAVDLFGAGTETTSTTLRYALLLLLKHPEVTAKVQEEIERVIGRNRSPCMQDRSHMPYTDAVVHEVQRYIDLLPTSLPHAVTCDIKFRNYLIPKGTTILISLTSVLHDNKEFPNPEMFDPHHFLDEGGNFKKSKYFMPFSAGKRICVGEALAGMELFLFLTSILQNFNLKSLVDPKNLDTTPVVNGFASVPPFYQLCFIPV

Cytochrome P450 2D6 = Cytochrome P450 2D6 (Homo sapiens, UniProt P10635);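 further: CYP2D6 member of a cytochrome P450 panel assay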
Cytochrome P450 2D6, sequence (P10635 whole entry): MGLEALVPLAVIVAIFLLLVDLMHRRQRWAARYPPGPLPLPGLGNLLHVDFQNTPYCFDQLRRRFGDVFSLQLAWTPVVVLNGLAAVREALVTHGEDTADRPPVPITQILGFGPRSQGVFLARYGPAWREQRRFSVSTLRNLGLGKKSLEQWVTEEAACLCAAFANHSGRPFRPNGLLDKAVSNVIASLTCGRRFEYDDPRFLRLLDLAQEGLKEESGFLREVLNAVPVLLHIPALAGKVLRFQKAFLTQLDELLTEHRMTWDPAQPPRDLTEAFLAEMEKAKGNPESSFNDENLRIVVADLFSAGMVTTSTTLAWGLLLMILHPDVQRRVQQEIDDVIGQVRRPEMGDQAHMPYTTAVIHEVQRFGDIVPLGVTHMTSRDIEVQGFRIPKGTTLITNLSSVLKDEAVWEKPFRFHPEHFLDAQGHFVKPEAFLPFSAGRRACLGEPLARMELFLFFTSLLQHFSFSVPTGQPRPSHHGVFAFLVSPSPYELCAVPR

CC(=O)Nc1ccc(OCC(=O)c2cc(C)n(Cc3ccccc3)c2C)cc1
EC50 [1]: > 30 µM (not active)

O=C(Cc1ccc([N+](=O)[O-])cc1)Nc1ccc(Oc2ccccc2)cc1
IC50 (NADPH oxidase 1): > 17 µM (not active)

CCCN1CC=C2C(C#N)=C(N)C(C#N)(C#N)C(c3cccc(OC)c3OC)C2C1 (stereo not given)
IC50 (Bcl-2-related protein A1 [2]): > 100 µM (not active) | IC50 (Bcl-2-related protein A1 [3]): > 100 µM (not active)

CC(=O)C1=C(C)OC2(O)c3ccccc3C(=O)C12O (stereo not given)
IC50 [4]: > 67 µM (not active) | IC50 (SUMO-activating enzyme [5]): 3.09 µM (active) | IC50 (SUMO-activating enzyme [6]): 16.6 µM (active) | IC50 [7]: > 2.48 µM (active) | IC50 [8]: 8.19 µM (active) | IC50 [9]: > 73.4 µM (inactive) | IC50 [10]: 0.455 µM (active) | IC50 [11]: 0.754 µM (active) | AC50 [12]: 4.82 µM (active) | IC50 [13]: 7.52 µM (active)

Cc1ccc(CCN2CC(C(=O)NCCCN3CCCCCC3)CC2=O)cc1 (stereo not given)
IC50 [14]: 11.1 µM (active)

O=c1c2ccccc2ncn1/N=C/c1ccccc1
EC50 [15]: 2.06 µM (active) | EC50 [16]: < 0.1 µM (active) | EC50 [17]: < 0.1 µM (active) | EC50 (H4): 0.525 µM (active) | EC50 [18]: 1.16 µM (active) | EC50 [19]: 0.53 µM (active)

COc1ccc(/C=C/C(=O)Oc2cccc(/C=N/NC(=O)COc3c(C)cccc3C)c2)cc1
IC50 [20]: 6.28 µM (active) | IC50 [21]: > 111 µM (not active) | AC50 (Cytochrome P450 2C9): 3.55 µM (inconclusive) | AC50 (Cytochrome P450 2D6): inconclusive
